According to patent US5876746A, “Transdermal patch and method for administering 17-deacetyl norgestimate alone or in combination with an estrogen” (Cygnus, Inc., priority 1996, dated 1999):
Read-outs that look alike come from different tables or passages of the source.

Experimental: Mixtures of Duro-Tak 87-2287, 0.26% aluminum acetylacetonate crosslinker, 6% 17-d-Ngm, 1% EE, and various permeation enhancers were prepared. These mixtures were cured and cast as a 100 micron thick (wet) layer onto a 3M 1022 polyester backing and dried. Skin flux tests were carried out on the resulting assemblies according to the procedure described in col. […] HPLC was used to assay for 17-d-Ngm and EE. A Perkin Elmer HPLC system with Diedoarray detector set at 245 nm and 215 nm for 17-d-Ngm and EE, respectively. The mobile phase was 55% water, 45% acetonitrile at a flow rate of 1.0 ml/min. Retention time was 4.5 and 3.0 min. for 17-d-Ngm and EE, respectively.
It was mixed with 17-d-Ngm, EE, 7% PVP (K30 from BASF; dissolved in n-propanol) and various enhancers. These mixtures were cast as a 100 micron thick (wet) layer onto a 3M 1022 polyester backing and dried. Skin flux tests were carried out on the resulting assemblies as in Example 1.
PIB solutions were prepared by dissolving VISTANEX L100, Vistanex LM-MS-LC, and polybutene (Indopol H1900) in hexane. Suspensions of PVP-CLM, 17-d-Ngm, EE and various enhancers in ethanol/ethyl acetate were prepared. The PIB solution was added to the drug suspensions and the resulting mixtures were thoroughly blended. The mixtures were cast as a 10 mil thick (wet) layer onto release liners and dried at 70° C. for 40 min. Saranex 2015 backing was laminated to the subassembly. Skin flux studies were carried out on these assemblies as in Example 1.

Compound: C[C@]12CC[C@@H]3c4ccc(O)cc4CC[C@H]3[C@@H]1CC[C@@H]2O [17β-estradiol]
- Flux (Table 5: 2% 17β-estradiol, 2% 17-deacetynorgetimate, 20% PVP-CLM, 76% PIB adhesive): 0.20 μg/cm^2 /hr

Compound: C#C[C@]1(O)CC[C@H]2[C@@H]3CCc4cc(O)ccc4[C@H]3CC[C@@]21C [EE, ethinyl estradiol]
- Flux (Table 1: 2% TG + 4% OL, Duro-Tak 87-2287, 6% 17-d-Ngm, 1% EE): 0.061 ± 0.007 μg/cm^2 /hr
- Flux (Table 1: 2% TG + 10% ML, Duro-Tak 87-2287, 6% 17-d-Ngm, 1% EE): 0.076 ± 0.005 μg/cm^2 /hr
- Flux (Table 1: 2% TG + 10% PGML, Duro-Tak 87-2287, 6% 17-d-Ngm, 1% EE): 0.057 ± 0.009 μg/cm^2 /hr
- Flux (Table 1: 3% TG, Duro-Tak 87-2287, 6% 17-d-Ngm, 1% EE): 0.043 ± 0.011 μg/cm^2 /hr
- Flux (Table 1: 4% TG + 15% ML, Duro-Tak 87-2287, 6% 17-d-Ngm, 1% EE): 0.072 ± 0.002 μg/cm^2 /hr
- Flux (Table 2: silicone 4202, 7% PVP, 2% 17-d-Ngm, 0.5% EE, 2% TG + 2% ML): 0.18 ± 0.02 μg/cm^2 /hr
- Flux (Table 2: silicone 4202, 7% PVP, 4% 17-d-Ngm, 0.5% EE, 2% ML): 0.074 ± 0.008 μg/cm^2 /hr
- Flux (Table 2: silicone 4202, 7% PVP, 4% 17-d-Ngm, 0.5% EE, 5% ML + 1% TG): 0.069 ± 0.007 μg/cm^2 /hr
- Flux (Table 2: silicone 4202, 7% PVP, 6% 17-d-Ngm, 0.5% EE, 5% ML + 1% TG): 0.043 ± 0.004 μg/cm^2 /hr
- Flux (Table 2: silicone 4202, 7% PVP, 6% 17-d-Ngm, 0.5% EE, 14% (TC:PGML; 80:20)): 0.062 ± 0.01 μg/cm^2 /hr
- Flux (Table 2: silicone 4202, 7% PVP, 6% 17-d-Ngm, 0.5% EE, 14% PGML): 0.070 ± 0.01 μg/cm^2 /hr
- Flux (Table 2: silicone 4202, 14% PVP, 4% 17-d-Ngm, 0.5% EE, 4% TG + 5% ML): 0.078 ± 0.01 μg/cm^2 /hr
- Flux (Table 3: 0.1% EE, 1% 17-d-Ngm, 5% ML, 7% PVP-CLM, 86.9% silicone): 0.05 ± 0.002 μg/cm^2 /hr
- Flux (Table 3: 0.1% EE, 1% 17-d-Ngm, 5% ML, 7% PVP-K30, 86.9% silicone): 0.04 ± 0.008 μg/cm^2 /hr
- Flux (Table 4: PIB 1:5:4, 0.2% EE, 1.0% 17-d-Ngm, 20% PVP-CLM, 5% AMWAT): 0.05 ± 0.004 μg/cm^2 /hr
- Flux (Table 4: PIB 1:5:4, 0.2% EE, 2.0% 17-d-Ngm, 20% PVP-CLM, 3% oleic acid): 0.06 ± 0.002 μg/cm^2 /hr
- Flux (Table 4: PIB 1:5:4, 0.2% EE, 2.0% 17-d-Ngm, 20% PVP-CLM, 5% lauramide diethanoiamine): 0.06 ± 0.001 μg/cm^2 /hr
- Flux (Table 4: PIB 1:5:4, 0.2% EE, 2.0% 17-d-Ngm, 20% PVP-CLM, 10% PGML): 0.09 ± 0.001 μg/cm^2 /hr
- Flux (Table 4: PIB 1:5:4, 0.2% EE, 2.0% 17-d-Ngm, 20% PVP-CLM, 10/0.5% PGML/oleic acid): 0.10 ± 0.001 μg/cm^2 /hr
- Flux (Table 4: PIB 1:5:4, 0.2% EE, 3.0% 17-d-Ngm, 20% PVP-CLM, 3% oleic acid): 0.04 ± 0.002 μg/cm^2 /hr
- Flux (Table 4: PIB 1:5:4, 0.2% EE, 3.0% 17-d-Ngm, 20% PVP-CLM, 10% PGML): 0.07 ± 0.001 μg/cm^2 /hr
- Flux (Table 4: PIB 1:5:4, 0.2% EE, 4.0% 17-d-Ngm, 20% PVP-CLM, 5% lauric acid N,N-dimethyl amide): 0.04 ± 0.001 μg/cm^2 /hr
- Flux (Table 4: PIB 1:5:4, 0.3% EE, 4.0% 17-d-Ngm, 20% PVP-CLM, 8% PGIS): 0.10 ± 0.001 μg/cm^2 /hr
- Flux (Table 4: PIB 1:5:4, 0.3% EE, 4.0% 17-d-Ngm, 20% PVP-CLM, 8/3% PGML/oleic acid): 0.14 ± 0.001 μg/cm^2 /hr
- Flux (Table 4: PIB 1:5:4, 0.3% EE, 4.0% 17-d-Ngm, 20% PVP-CLM, 15% dibutylsebacate): 0.06 ± 0.005 μg/cm^2 /hr
- Flux (Table 4: PIB 1:5:4, 0.3% EE, 4.0% 17-d-Ngm, 20% PVP-CLM, 15% ethyl oleate): 0.10 ± 0.001 μg/cm^2 /hr
- Flux (Table 4: PIB 1:5:4, 0.3% EE, 4.0% 17-d-Ngm, 20% PVP-CLM, 15% isopropyl palmitate): 0.07 ± 0.001 μg/cm^2 /hr
- Flux (Table 4: PIB 2:4:4, 0.3% EE, 4.0% 17-d-Ngm, 20% PVP-CLM, 20% propyl laurate): 0.06 ± 0.002 μg/cm^2 /hr
- Flux (Table 6: 70.8% PIB, 20% PVP-CLM, 0.2% EE, 2% 71-d-Ngm, 7% lauryl lactate, skin permeability Low): 0.03 μg/cm^2 /hr
- Flux (Table 6: 70.8% PIB, 20% PVP-CLM, 0.2% EE, 2% 71-d-Ngm, 7% lauryl lactate, skin permeability Medium): 0.08 μg/cm^2 /hr
- Flux (Table 6: 72.8% PIB, 20% PVP-CLM, 0.2 EE, 2% 17-d-Ngm, 5% myristyl lactate, skin permeability not given): 0.09 μg/cm^2 /hr
- Flux (Table 6: 72.85% PIB, 20% PVP-CLM, 0.15% EE, 5% lauryl lactate, skin permeability High): 0.08 μg/cm^2 /hr
- Flux (Table 6: 72.85% PIB, 20% PVP-CLM, 0.15% EE, 5% lauryl lactate, skin permeability Low): 0.02 μg/cm^2 /hr
- Flux (Table 6: 72.85% PIB, 20% PVP-CLM, 0.15% EE, 5% lauryl lactate, skin permeability Medium): 0.05 μg/cm^2 /hr
